Several values for one entry are separate records, joined by “and”; a condition that tells them apart may be missing. Equal entries are not always repeated.
Conditions: for vapor or sublimation pressure: Closed cell (Static) method

O=C(C(F)(F)C(F)(F)F)C(F)(C(F)(F)F)C(F)(F)F [dodecafluoro-2-methylpentan-3-one]
Conditions | mass density [kg/m3] | speed of sound [m/s]
225.01 K, 992.5 kPa, Liquid, Buoyancy - hydrostatic balance with magnetic suspension - two sinkers | 1809.67 | –
225.01 K, 6306.6 kPa, Liquid, Buoyancy - hydrostatic balance with magnetic suspension - two sinkers | 1821.02 | –
235 K, 11155 kPa, Liquid, Buoyancy - hydrostatic balance with magnetic suspension - two sinkers | 1806.22 | –
240 K, 16200 kPa, Liquid, Buoyancy - hydrostatic balance with magnetic suspension - two sinkers | 1804.64 | –
245 K, 21227 kPa, Liquid, Buoyancy - hydrostatic balance with magnetic suspension - two sinkers | 1803.18 | –
250 K, 26208 kPa, Liquid, Buoyancy - hydrostatic balance with magnetic suspension - two sinkers | 1801.77 | –
260 K, 1145.1 kPa, Liquid, Buoyancy - hydrostatic balance with magnetic suspension - two sinkers | 1716.09 | –
260 K, 6242.2 kPa, Liquid, Buoyancy - hydrostatic balance with magnetic suspension - two sinkers | 1731.21 | –
260 K, 12122 kPa, Liquid, Buoyancy - hydrostatic balance with magnetic suspension - two sinkers | 1746.98 | –
260 K, 18392 kPa, Liquid, Buoyancy - hydrostatic balance with magnetic suspension - two sinkers | 1762.27 | –
260 K, 27930 kPa, Liquid, Buoyancy - hydrostatic balance with magnetic suspension - two sinkers | 1783.14 | –
260 K, 36060 kPa, Liquid, Buoyancy - hydrostatic balance with magnetic suspension - two sinkers | 1799.13 | –
270 K, 8922.2 kPa, Liquid, Buoyancy - hydrostatic balance with magnetic suspension - two sinkers | 1713.2 | –
275 K, 12791 kPa, Liquid, Buoyancy - hydrostatic balance with magnetic suspension - two sinkers | 1711.88 | –
278.15 K, 83 kPa, Liquid, Vibrating tube method | 1660.83 | –
280 K, 16636 kPa, Liquid, Buoyancy - hydrostatic balance with magnetic suspension - two sinkers | 1710.6 | –
283.15 K, 83 kPa, Liquid, Vibrating tube method | 1646.79 | –
285 K, 20456 kPa, Liquid, Buoyancy - hydrostatic balance with magnetic suspension - two sinkers | 1709.38 | –
288.15 K, 83 kPa, Liquid, Vibrating tube method | 1632.33 | –
290 K, 24255 kPa, Liquid, Buoyancy - hydrostatic balance with magnetic suspension - two sinkers | 1708.2 | –
293.15 K, 83 kPa, Liquid, Vibrating tube method | 1617.51 | –
295 K, 28026 kPa, Liquid, Buoyancy - hydrostatic balance with magnetic suspension - two sinkers | 1707.06 | –
298.15 K, 83 kPa, Liquid, Vibrating tube method | 1602.48 | –
303 K, 1007.3 kPa, Liquid, Buoyancy - hydrostatic balance with magnetic suspension - two sinkers | 1592.53 | –
303 K, 1089 kPa, Liquid, Buoyancy - hydrostatic balance with magnetic suspension - two sinkers | 1592.94 | –
303 K, 5959.8 kPa, Liquid, Buoyancy - hydrostatic balance with magnetic suspension - two sinkers | 1615.54 | –
303 K, 6069.2 kPa, Liquid, Buoyancy - hydrostatic balance with magnetic suspension - two sinkers | 1616.01 | –
303 K, 12121 kPa, Liquid, Buoyancy - hydrostatic balance with magnetic suspension - two sinkers | 1639.93 | –
303 K, 22348 kPa, Liquid, Buoyancy - hydrostatic balance with magnetic suspension - two sinkers | 1673.62 | –
303 K, 28346 kPa, Liquid, Buoyancy - hydrostatic balance with magnetic suspension - two sinkers | 1690.63 | –
303 K, 33973 kPa, Liquid, Buoyancy - hydrostatic balance with magnetic suspension - two sinkers | 1705.21 | –
303.15 K, 83 kPa, Liquid, Vibrating tube method | 1587.28 | –
308.15 K, 83 kPa, Liquid, Vibrating tube method | 1571.82 | –
310 K, 4843.5 kPa, Liquid, Buoyancy - hydrostatic balance with magnetic suspension - two sinkers | 1590.92 | –
318 K, 9214.8 kPa, Liquid, Buoyancy - hydrostatic balance with magnetic suspension - two sinkers | 1589.2 | –
318 K, 9295.7 kPa, Liquid, Buoyancy - hydrostatic balance with magnetic suspension - two sinkers | 1589.59 | –
324.97 K, 65.34 kPa, Gas, Spherical resonator | – | 90.45
324.97 K, 82.58 kPa, Gas, Spherical resonator | – | 89.49
324.97 K, 100.55 kPa, Gas, Spherical resonator | – | 88.41
324.97 K, 100.57 kPa, Gas, Spherical resonator | – | 88.41
324.97 K, 100.58 kPa, Gas, Spherical resonator | – | 88.41
326.01 K, 13558 kPa, Liquid, Buoyancy - hydrostatic balance with magnetic suspension - two sinkers | 1587.57 | –
334.01 K, 17866 kPa, Liquid, Buoyancy - hydrostatic balance with magnetic suspension - two sinkers | 1585.99 | –
334.02 K, 17984 kPa, Liquid, Buoyancy - hydrostatic balance with magnetic suspension - two sinkers | 1586.44 | –
340 K, 1091.8 kPa, Liquid, Buoyancy - hydrostatic balance with magnetic suspension - two sinkers | 1474.85 | –
340 K, 4035.6 kPa, Liquid, Buoyancy - hydrostatic balance with magnetic suspension - two sinkers | 1497.23 | –
340 K, 7986.5 kPa, Liquid, Buoyancy - hydrostatic balance with magnetic suspension - two sinkers | 1522.5 | –
340 K, 11938 kPa, Liquid, Buoyancy - hydrostatic balance with magnetic suspension - two sinkers | 1544.06 | –
340 K, 16171 kPa, Liquid, Buoyancy - hydrostatic balance with magnetic suspension - two sinkers | 1564.25 | –
340 K, 21184 kPa, Liquid, Buoyancy - hydrostatic balance with magnetic suspension - two sinkers | 1585.31 | –
342.01 K, 22145 kPa, Liquid, Buoyancy - hydrostatic balance with magnetic suspension - two sinkers | 1584.49 | –
349.97 K, 150.02 kPa, Gas, Spherical resonator | – | 90.93
349.97 K, 191.77 kPa, Gas, Spherical resonator | – | 88.85
349.98 K, 61.83 kPa, Gas, Spherical resonator | – | 94.86
349.98 K, 106.24 kPa, Gas, Spherical resonator | – | 92.93
350 K, 53.94 kPa, Gas, Spherical resonator | – | 95.2
350 K, 104.66 kPa, Gas, Spherical resonator | – | 93
350 K, 152.11 kPa, Gas, Spherical resonator | – | 90.82
350 K, 191.03 kPa, Gas, Spherical resonator | – | 88.88
350 K, 26385 kPa, Liquid, Buoyancy - hydrostatic balance with magnetic suspension - two sinkers | 1583.04 | –
360 K, 1009.8 kPa, Liquid, Buoyancy - hydrostatic balance with magnetic suspension - two sinkers | 1401.62 | –
360 K, 6002.5 kPa, Liquid, Buoyancy - hydrostatic balance with magnetic suspension - two sinkers | 1449.57 | –
360 K, 8915.5 kPa, Liquid, Buoyancy - hydrostatic balance with magnetic suspension - two sinkers | 1471.34 | –
360 K, 11021 kPa, Liquid, Buoyancy - hydrostatic balance with magnetic suspension - two sinkers | 1485.32 | –
360 K, 16073 kPa, Liquid, Buoyancy - hydrostatic balance with magnetic suspension - two sinkers | 1514.43 | –
360 K, 21146 kPa, Liquid, Buoyancy - hydrostatic balance with magnetic suspension - two sinkers | 1539.18 | –
360 K, 31620 kPa, Liquid, Buoyancy - hydrostatic balance with magnetic suspension - two sinkers | 1581.19 | –
370 K, 4182.9 kPa, Liquid, Buoyancy - hydrostatic balance with magnetic suspension - two sinkers | 1400.06 | –
375.01 K, 57.06 kPa, Gas, Spherical resonator | – | 98.91
375.01 K, 123.45 kPa, Gas, Spherical resonator | – | 96.64
375.01 K, 220.4 kPa, Gas, Spherical resonator | – | 93.07
375.01 K, 316.42 kPa, Gas, Spherical resonator | – | 89.11
380 K, 7353.3 kPa, Liquid, Buoyancy - hydrostatic balance with magnetic suspension - two sinkers | 1398.51 | –
380.04 K, 16688 kPa, Liquid, Buoyancy - hydrostatic balance with magnetic suspension - two sinkers | 1468.1 | –
385.99 K, 9254.1 kPa, Liquid, Buoyancy - hydrostatic balance with magnetic suspension - two sinkers | 1397.63 | –
393.98 K, 11788 kPa, Liquid, Buoyancy - hydrostatic balance with magnetic suspension - two sinkers | 1396.48 | –
400 K, 2018.5 kPa, Liquid, Buoyancy - hydrostatic balance with magnetic suspension - two sinkers | 1244.05 | –
400 K, 3987.4 kPa, Liquid, Buoyancy - hydrostatic balance with magnetic suspension - two sinkers | 1284.55 | –
400 K, 8129.1 kPa, Liquid, Buoyancy - hydrostatic balance with magnetic suspension - two sinkers | 1342.48 | –
400.01 K, 11999 kPa, Liquid, Buoyancy - hydrostatic balance with magnetic suspension - two sinkers | 1381.28 | –

83 kPa, Liquid, Frequency=3 MHz, Sing-around technique in a fixed-path interferometer
Conditions | speed of sound [m/s]
278.15 K | 567.88
283.15 K | 551.54
288.15 K | 535.45
293.15 K | 519.58
298.15 K | 503.72
303.15 K | 488.11
308.15 K | 472.63

Liquid
Conditions | vapor or sublimation pressure
324.96 K | 111.4 kPa and 111.4 kPa
324.97 K | 111.4 kPa and 111.3 kPa
324.98 K | 111.6 kPa
339.95 K | 180.3 kPa
349.99 K | 242.7 kPa
354.98 K | 278.7 kPa
370 K | 413.4 kPa
374.99 K | 467.9 kPa and 467.6 kPa
390.03 K | 663.7 kPa
